Measured values: the supplement of paper PMC10307832

Tests used:
Assay in all cases: relative viability (nuclei count vs DMSO), 5 days (fraction); higher = more cells survive
IPA-3 + Palbociclib = compound: C1=CC=C2C(=C1)C=CC(=C2SSC3=C(C=CC4=CC=CC=C43)O)O [IPA-3] + CC(=O)c1c(C)c2cnc(Nc3ccc(N4CCNCC4)cn3)nc2n(C2CCCC2)c1=O [Palbociclib] (partner 0.5 µM)
Summary of the method: (§1)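 The day after seeding in 1536-well plates, lung cancer cell lines were treated by pin tool with a single drug, or with a fixed anchor-drug dose together with five library-drug doses (not always all listed) in √10 steps. After 5 days, a combined fix-and-stain solution (final 0.05% Triton X-100, 1% formaldehyde, 1 ug/ml Hoechst) was added. Nuclei counted on 4× images gave relative viability as treated counts over vehicle counts, reported as the median of duplicate plates.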

Doramapimod + Linsitinib = compound: Cc1ccc(-n2nc(C(C)(C)C)cc2NC(=O)Nc2ccc(OCCN3CCOCC3)c3ccccc23)cc1 [Doramapimod] + C[C@]1(O)C[C@@H](c2nc(-c3ccc4ccc(-c5ccccc5)nc4c3)c3c(N)nccn32)C1 [Linsitinib] (partner 1 µM)
Summary of the method: as §1

IPA-3 + Bortezomib = compound: C1=CC=C2C(=C1)C=CC(=C2SSC3=C(C=CC4=CC=CC=C43)O)O [IPA-3] + CC(C)C[C@H](NC(=O)[C@H](Cc1ccccc1)NC(=O)c1cnccn1)B(O)O [Bortezomib] (partner 0.002 µM)
Summary of the method: as §1

RAF265 + OSI-027 = compound: Cn1c(Nc2ccc(C(F)(F)F)cc2)nc2cc(Oc3ccnc(-c4ncc(C(F)(F)F)[nH]4)c3)ccc21 [RAF265] + COc1cccc2cc(-c3nc([C@H]4CC[C@H](C(=O)O)CC4)n4ncnc(N)c34)[nH]c12 [OSI-027] (partner 0.5 µM)
Summary of the method: as §1

| Cell Line | relative viability (IPA-3 + Palbociclib; first compound 0.2 µM) | relative viability (IPA-3 + Palbociclib; first compound 0.6325 µM) | relative viability (IPA-3 + Palbociclib; first compound 2 µM) | relative viability (IPA-3 + Palbociclib; first compound 6.325 µM) | relative viability (IPA-3 + Palbociclib; first compound 20 µM) | relative viability (Doramapimod + Linsitinib; first compound 0.02 µM) | relative viability (Doramapimod + Linsitinib; first compound 0.06325 µM) | relative viability (Doramapimod + Linsitinib; first compound 0.2 µM) | relative viability (Doramapimod + Linsitinib; first compound 0.6325 µM) | relative viability (Doramapimod + Linsitinib; first compound 2 µM) | relative viability (IPA-3 + Bortezomib; first compound 0.2 µM) | relative viability (IPA-3 + Bortezomib; first compound 0.6325 µM) | relative viability (IPA-3 + Bortezomib; first compound 2 µM) | relative viability (IPA-3 + Bortezomib; first compound 6.325 µM) | relative viability (IPA-3 + Bortezomib; first compound 20 µM) | relative viability (RAF265 + OSI-027; first compound 0.01 µM) | relative viability (RAF265 + OSI-027; first compound 0.03162 µM) | relative viability (RAF265 + OSI-027; first compound 0.1 µM) | relative viability (RAF265 + OSI-027; first compound 0.3162 µM) | relative viability (RAF265 + OSI-027; first compound 1 µM) |
| --- | --- | --- | --- | --- | --- | --- | --- | --- | --- | --- | --- | --- | --- | --- | --- | --- | --- | --- | --- | --- |
| LCLC-97TM1 | 0.23 | 0.2 | 0.226 | 0.185 | 0.177 | 0.181 | 0.169 | 0.161 | 0.191 | 0.17 | 0.524 | 0.847 | 0.814 | 0.438 | 0.575 | 0.516 | 0.328 | 0.215 | 0.416 | 0.0767 |
| LCLC-103H | 0.496 | 0.498 | 0.485 | 0.438 | 0.492 | 0.99 | 1.06 | 1.09 | 1.09 | 1.03 | 1.13 | 1.06 | 1.17 | 1.17 | 1.18 | 0.466 | 0.439 | 0.464 | 0.443 | 0.308 |
| LOU-NH91 | 0.535 | 0.525 | 0.552 | 0.511 | 0.572 | 0.967 | 0.91 | 0.972 | 1.06 | 0.686 | 0.493 | 0.479 | 0.498 | 0.478 | 0.597 | 0.703 | 0.653 | 0.737 | 0.45 | 0.486 |
| LU99A | 0.437 | 0.376 | 0.425 | 0.452 | 0.394 | 0.504 | 0.535 | 0.47 | 0.503 | 0.457 | 1.23 | 1.07 | 1.28 | 1.04 | 1.06 | 0.299 | 0.274 | 0.27 | 0.258 | 0.205 |
| LXF-289 | 0.606 | 0.579 | 0.556 | 0.568 | 0.642 | 0.961 | 0.92 | 0.896 | 0.933 | 0.939 | 1.03 | 0.954 | 1.04 | 1.04 | 1.1 | 0.836 | 0.813 | 0.59 | 0.326 | 0.2 |
| NCI-H23 | 0.477 | 0.4 | 0.486 | 0.486 | 0.542 | 0.648 | 0.528 | 0.511 | 0.664 | 0.565 | 1.39 | 0.964 | 1.08 | 1.06 | 0.797 | 0.734 | 0.46 | 0.412 | 0.318 | 0.221 |
| NCI-H322M | 0.48 | 0.452 | 0.433 | 0.525 | 0.514 | 0.851 | 0.834 | 0.909 | 1.01 | 0.874 | 1.31 | 1.21 | 1.19 | 1.32 | 1.23 | 0.589 | 0.519 | 0.41 | 0.358 | 0.186 |
| NCI-H441 | 0.244 | 0.213 | 0.198 | 0.169 | 0.185 | 0.528 | 0.512 | 0.541 | 0.553 | 0.442 | 0.446 | – | 0.285 | 0.734 | 0.589 | 0.612 | 0.591 | 0.454 | 0.346 | 0.351 |
| NCI-H460 | 0.203 | 0.108 | 0.145 | 0.19 | 0.057 | 0.71 | 0.736 | 0.733 | 0.875 | 0.641 | 1.64 | 1 | 1.24 | 1.07 | 1.05 | 0.696 | 0.627 | 0.416 | 0.222 | 0.0945 |
| NCI-H520 | 0.229 | 0.206 | – | 0.283 | 0.186 | 0.937 | 1.11 | 0.838 | 0.963 | 0.897 | 1.13 | 0.769 | 0.536 | 0.684 | 0.487 | 0.248 | 0.255 | 0.287 | 0.299 | 0.224 |
| NCI-H647 | 0.561 | 0.373 | 0.371 | 0.206 | 0.0359 | 1.22 | 1.24 | 1.15 | 1.03 | 1.04 | 1.77 | 0.939 | 0.654 | 0.614 | 0.121 | 0.598 | 0.618 | 0.417 | 0.246 | 0.213 |
| NCI-H650 | 0.373 | 0.361 | 0.323 | 0.361 | 0.426 | 0.93 | 1.03 | 1.08 | 0.923 | 0.785 | 0.972 | 0.83 | 0.798 | 0.858 | 1.22 | 0.52 | 0.468 | 0.491 | 0.411 | 0.279 |
| NCI-H661 | 0.406 | 0.434 | 0.389 | 0.435 | 0.366 | 0.634 | 0.568 | 0.555 | 0.741 | 0.599 | 0.972 | 0.779 | 0.915 | 0.967 | 0.897 | 0.742 | 0.394 | 0.44 | 0.333 | 0.291 |
| NCI-H727 | 0.671 | 0.784 | 0.644 | 0.63 | 0.625 | 0.166 | 0.221 | 0.366 | 0.317 | 0.278 | 0.841 | 0.788 | 0.857 | 0.866 | 1.12 | 0.7 | 0.8 | 0.487 | 0.438 | 0.347 |
| NCI-H838 | 0.278 | 0.202 | 0.209 | 0.225 | 0.204 | 0.9 | 1.04 | 1.02 | 1.1 | 0.994 | 1.89 | 0.847 | 0.667 | 1.03 | 0.815 | 0.403 | 0.491 | 0.455 | 0.341 | 0.304 |
| NCI-H1355 | 0.445 | 0.395 | 0.386 | 0.405 | 0.424 | 0.804 | 0.819 | 0.824 | 0.908 | 0.779 | 1.44 | 1.25 | 1.18 | 1.16 | 1.3 | 0.461 | 0.314 | 0.3 | 0.251 | 0.217 |
